According to publication PMC8151276, “An Integrated Approach toward NanoBRET Tracers for Analysis of GPCR Ligand Engagement” (Molecules, 2021):

Columns and labels:
Type in all cases: binding
LTB4R2 = molecular target: T1, LTB4R2 (Homo sapiens, UniProt Q9NPC1); test: NanoBRET screen HiBiT-LTB4R2 in HEK293
T1 construct: purchased Promega (in-house HiBiT-GPCR construct library, NanoBRET)
T1 sequence (Q9NPC1 1-358): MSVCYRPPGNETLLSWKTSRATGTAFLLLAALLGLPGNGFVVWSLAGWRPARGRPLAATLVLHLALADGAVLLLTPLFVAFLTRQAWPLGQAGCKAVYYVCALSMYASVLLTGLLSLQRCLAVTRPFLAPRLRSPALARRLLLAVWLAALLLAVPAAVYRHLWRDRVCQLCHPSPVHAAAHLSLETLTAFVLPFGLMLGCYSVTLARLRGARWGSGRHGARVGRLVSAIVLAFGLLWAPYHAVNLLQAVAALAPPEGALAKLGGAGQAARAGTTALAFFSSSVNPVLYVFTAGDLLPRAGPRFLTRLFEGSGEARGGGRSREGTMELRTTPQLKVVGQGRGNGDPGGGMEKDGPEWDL
Description: (§1) Each tracer candidate was screened across the entire library of HiBiT-GPCR constructs using NanoBRET as the detection modality. As depicted in Figure 4A, the specificity of interactions was evaluated through decrease in BRET due to competitive displacement of a bound tracer by excess parental compound. Each tracer was analyzed for binding to each HiBiT-GPCR fusion in the absence and in the presence of competing parental compound. Briefly, HEK293 cells were transfected with HiBiT-GPCR constructs diluted into promoterless DNA to reduce expression and maximize translocation to the cell surface. Each tracer candidate was then screened at concentrations of 1 μM and 0.1 μM across cells expressing these fusions. Cells were treated for 1.5 h with tracer either alone or in the presence of 20 μM competing parental compound (i.e., control). BRET was measured upon addition of purified LgBiT and subsequent complementation with HiBiT genetically fused to a GPCR. The specificity of interactions was assessed through a decrease in BRET signal due to competitive displacement of the bound tracer. To further gauge the robustness of these interactions, the fold response over the control (i.e., BRETtracer/BRETcontrol) was calculated. We chose a 1.5-fold response, which translates to ≥7-fold signal over noise as the minimal threshold required to score an interaction as positive. […]. Below we highlight the screening results obtained for our exemplary fluorescent tracers based on Clozapine, Amitriptyline and AZD1283.
(§2) HiBiT-GPCR DNA constructs were diluted in 10 mM Tris pH 8 to a final concentration of 0.01 μg/μL, arrayed in 96-well plates and stored at −20 °C. For transfection, HEK293 cells were suspended in Opti-MEM (without phenol red) supplemented with 2% fetal bovine serum (Seradigm) and 100 units/mL penicillin–streptomycin (Gibco) at a final concentration of 220,000 cells/mL and dispensed into white 96-well plates at 90 μL/well. Subsequent transfections and screens were carried using an Agilent Bravo Automated Liquid Handling Platform. First, the 96-well HiBiT DNA arrays were diluted 25-fold in Opti-MEM (without serum or phenol red) to a final concentration of 0.0004 μg/μL and 20 μL of the diluted DNAs were transferred into new 96-well plates. Next, promoterless carrier DNA (1 μg/μL) was diluted 25-fold (0.04 μg/μL) and then dispensed into the diluted arrays at 20 μL/well. Following brief mixing, Viafect transfection reagent (Promega) diluted 16-fold into Opti-MEM was dispensed into the plates at 40 μL/well. After mixing by pipetting, plates were incubated for 10 min on the pipetting station deck. The DNA-transfection reagent complexes were then added to plates containing cells. To facilitate the screen, 10 μL of DNA-transfection reagent complexes were added in duplicates to the top 4 and bottom 4 rows, resulting in two identical 48-well arrays per plate. Plates with transfected cells were incubated for 18–20 h at 37 °C/5% CO2. A screen of each tracer across the entire library using two different concentrations requires duplicate plates of transfected cells. Depending on the number of tracers being screened, transfections can be scaled up using the same ratios. The next day, for each tracer, four 20× screening solutions in tracer dilution buffer (Promega) were prepared: two duplicates at final concentration of 20 μM and two duplicates at a final concentration of 2 μM. A competing unmodified compound was added to one of each duplicate at a final concentration of 400 μM. The four resulting solutions were diluted 4-fold in Opti-MEM without serum or phenol red to generate 5× solutions (5 µM and 0.5 µM tracer +/− 100 μM competing compound). To screen the library, a BioTek MultiFlo FX liquid dispenser was used to dispense 22.5 µL of tracer solution to the top 4 rows and 22.5 µL tracer + competing compound solution to the 4 bottom rows. Plates were briefly mixed on an orbital shaker and incubated for 1.5 h at room temperature. […]

DRD5 = molecular target: T2, DRD5 (Homo sapiens, UniProt P21918); test: NanoBRET screen HiBiT-DRD5 in HEK293
T2 construct: purchased Promega (in-house HiBiT-GPCR construct library, NanoBRET)
T2 sequence (P21918 whole entry): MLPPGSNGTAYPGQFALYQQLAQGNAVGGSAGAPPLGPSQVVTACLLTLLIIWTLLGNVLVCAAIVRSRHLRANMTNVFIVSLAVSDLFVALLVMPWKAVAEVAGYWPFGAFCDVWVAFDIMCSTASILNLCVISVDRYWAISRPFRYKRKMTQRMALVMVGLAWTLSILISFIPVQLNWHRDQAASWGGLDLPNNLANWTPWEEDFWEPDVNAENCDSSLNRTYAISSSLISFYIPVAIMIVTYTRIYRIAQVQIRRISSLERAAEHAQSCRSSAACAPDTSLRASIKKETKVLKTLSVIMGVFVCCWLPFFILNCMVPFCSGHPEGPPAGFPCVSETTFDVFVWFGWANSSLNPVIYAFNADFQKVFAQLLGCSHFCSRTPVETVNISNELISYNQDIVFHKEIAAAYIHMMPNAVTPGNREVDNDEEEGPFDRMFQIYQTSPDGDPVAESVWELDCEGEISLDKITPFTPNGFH
Description: as §1, §2

BDKRB1 = molecular target: T3, BDKRB1 (Homo sapiens, UniProt P46663); test: NanoBRET screen HiBiT-BDKRB1 in HEK293
T3 construct: purchased Promega (in-house HiBiT-GPCR construct library, NanoBRET)
T3 sequence (P46663 1-353): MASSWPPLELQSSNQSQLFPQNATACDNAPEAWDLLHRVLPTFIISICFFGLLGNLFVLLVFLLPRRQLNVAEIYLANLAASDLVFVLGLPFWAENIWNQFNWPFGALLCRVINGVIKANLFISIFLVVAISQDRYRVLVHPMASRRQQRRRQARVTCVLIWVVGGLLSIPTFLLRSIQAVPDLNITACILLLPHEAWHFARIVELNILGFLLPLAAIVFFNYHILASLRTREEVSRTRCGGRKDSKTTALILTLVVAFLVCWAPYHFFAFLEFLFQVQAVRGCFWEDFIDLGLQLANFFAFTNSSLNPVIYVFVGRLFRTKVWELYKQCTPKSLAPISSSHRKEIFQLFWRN
Description: as §1, §2

GALR1 = molecular target: T4, GALR1 (Homo sapiens, UniProt P47211); test: NanoBRET screen HiBiT-GALR1 in HEK293
T4 construct: purchased Promega (in-house HiBiT-GPCR construct library, NanoBRET)
T4 sequence (P47211 1-349): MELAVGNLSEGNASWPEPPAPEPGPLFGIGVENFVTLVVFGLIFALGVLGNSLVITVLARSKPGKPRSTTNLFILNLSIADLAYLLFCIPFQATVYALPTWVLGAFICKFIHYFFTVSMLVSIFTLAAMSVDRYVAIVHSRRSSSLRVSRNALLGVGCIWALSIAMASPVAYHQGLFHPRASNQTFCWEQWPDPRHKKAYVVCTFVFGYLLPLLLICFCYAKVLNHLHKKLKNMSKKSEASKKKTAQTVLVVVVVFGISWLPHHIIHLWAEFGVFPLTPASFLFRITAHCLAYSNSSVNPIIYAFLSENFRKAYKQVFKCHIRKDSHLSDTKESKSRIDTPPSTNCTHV
Description: as §1, §2

NanoBRET Fold Response (BDKRB1; 0.1μM tracer) | NanoBRET Fold Response (BDKRB1; 1μM tracer) | NanoBRET Fold Response (LTB4R2; 0.1μM tracer) | NanoBRET Fold Response (LTB4R2; 1μM tracer) | NanoBRET Fold Response (DRD5; 0.1μM tracer) | NanoBRET Fold Response (DRD5; 1μM tracer) | NanoBRET Fold Response (GALR1; 0.1μM tracer) | NanoBRET Fold Response (GALR1; 1μM tracer) | SMILES | NanoBRET Fold Response (LTB4R2; tracer at 1μM) | NanoBRET Fold Response (DRD5; tracer at 1μM) | NanoBRET Fold Response (BDKRB1; BDKRB1, 0.1μM tracer) | NanoBRET Fold Response (BDKRB1; BDKRB1, 1μM tracer) | NanoBRET Fold Response (LTB4R2; LTB4R2, 0.1μM tracer) | NanoBRET Fold Response (LTB4R2; LTB4R2, 1μM tracer) | NanoBRET Fold Response (DRD5; DRD5, 0.1μM tracer) | NanoBRET Fold Response (DRD5; DRD5, 1μM tracer) | NanoBRET Fold Response (GALR1; GALR1, 0.1μM tracer) | NanoBRET Fold Response (GALR1; GALR1, 1μM tracer)
 |  |  |  |  |  |  |  | CN(CCC=C1c2ccccc2CCc2ccccc21)C(=O)CCOCCOCCOCCOCCNC(=O)CCc1ccc2n1[B-](F)(F)[N+]1=C(c3ccc[nH]3)C=CC1=C2 [Amitriptyline-e-2-NB590] | 1.06 | 1.11 |  |  |  |  |  |  |  | 
1.39 | 0.74 | 1.02 | 1.02 | 0.97 | 0.96 | 1.06 | 1.00 | COc1ccc2c(n1)c(CCNC(C)=O)cn2CCNC(=O)CCc1ccc2n1[B-](F)(F)[N+]1=C(c3ccc[nH]3)C=CC1=C2 [Azamelatonin-1-NB590] |  |  |  |  |  |  |  |  |  | 
1.31 | 1.20 | 1.38 | 0.99 | 1.14 | 0.93 | 0.87 | 1.05 | COc1ccc2[nH]c(-c3ccc(CNC(=O)CCOCCOCCOCCOCCNC(=O)CCc4ccc5n4[B-](F)(F)[N+]4=C(c6ccc[nH]6)C=CC4=C5)cc3)c(CCNC(C)=O)c2n1 [AzomelatoninICO9-2-NB590] |  |  |  |  |  |  |  |  |  | 
 |  |  |  |  |  |  |  | O=C(CCOCCOCCOCCOCCNC(=O)CCc1ccc2n1[B-](F)(F)[N+]1=C(c3ccc[nH]3)C=CC1=C2)NCCCN1CCN(C2=Nc3cc(Cl)ccc3Nc3ccccc32)CC1 [Clozapine-a-2-NB590] |  |  | 1.02 | 1.37 | 1.03 | 0.88 | 2.41 | 2.86 | 1.05 | 1.09
 |  |  |  |  |  |  |  | CN1CCN(C2=Nc3cc(Cl)ccc3Nc3ccc(CNC(=O)CCOCCOCCOCCOCCNC(=O)CCc4ccc5n4[B-](F)(F)[N+]4=C(c6ccc[nH]6)C=CC4=C5)cc32)CC1 [Clozapine-b-2-NB590] |  |  | 0.99 | 0.92 | 0.97 | 1.16 | 1.01 | 1.83 | 0.99 | 0.99
 |  |  |  |  |  |  |  | CN1CCN(C2=Nc3cc(Cl)ccc3N(CC(=O)NCCOCCOCCOCCOCCNC(=O)CCc3ccc4n3[B-](F)(F)[N+]3=C(c5ccc[nH]5)C=CC3=C4)c3ccccc32)CC1 [Clozapine-c-2-NB590] |  |  | 1.06 | 1.07 | 1.02 | 0.91 | 0.98 | 1.16 | 1.02 | 1.03
